In PubChem BioAssay AID2060336 (Molecular Pharmacology Branch, DTP, NCI, 2025):

Test system: 958767-090-R-J1-PDC spheroid growth
Assay: Anticancer human tumor 958767-090-R-J1-PDC patient-derived head and neck squamous carcinoma cell line growth inhibition [IpAb]
Details: spheroids with HUVEC and MSC; for IC50: curve of first compound; for viability, T/C: stronger effect = lower value
How it was run: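 Combinations with ipatasertib or abemaciclib were tested on tumour spheroids holding HUVEC (25%) and MSC (15%) alongside 60% malignant cells. Top concentration was at or near clinical Cmax (10 microM if undefined), descending in half-log steps.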

[1] = second compound 0.1 µM, first compound 0.00316 µM
[2] = second compound 0.1 µM, first compound 0.01 µM
[3] = second compound 0.1 µM, first compound 0.0316 µM
[4] = second compound 0.1 µM, first compound 0.1 µM
[5] = second compound 0.1 µM, first compound 0.316 µM
[6] = second compound 0.1 µM, first compound 1 µM
[7] = second compound 0.316 µM, first compound 0.00316 µM
[8] = second compound 0.316 µM, first compound 0.01 µM
[9] = second compound 0.316 µM, first compound 0.0316 µM
[10] = second compound 0.316 µM, first compound 0.1 µM
[11] = second compound 0.316 µM, first compound 0.316 µM
[12] = second compound 0.316 µM, first compound 1 µM
[13] = second compound 1 µM, first compound 0.00316 µM
[14] = second compound 1 µM, first compound 0.01 µM
[15] = second compound 1 µM, first compound 0.0316 µM
[16] = second compound 1 µM, first compound 0.1 µM
[17] = second compound 1 µM, first compound 0.316 µM
[18] = second compound 1 µM, first compound 1 µM
[19] = second compound 3.16 µM, first compound 0.00316 µM
[20] = second compound 3.16 µM, first compound 0.01 µM
[21] = second compound 3.16 µM, first compound 0.0316 µM
[22] = second compound 3.16 µM, first compound 0.1 µM
[23] = second compound 10 µM, first compound 0.00316 µM
[24] = second compound 10 µM, first compound 0.01 µM
[25] = second compound 10 µM, first compound 0.0316 µM
[26] = second compound 10 µM, first compound 0.1 µM
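Further: spheroids exposed to agents for 7 days.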
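Wherever viability, T/C is given: 100% = DMSO vehicle control wells.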

| SMILES | IC50 (second compound 0.1 µM) | IC50 (second compound 0.316 µM) | IC50 (second compound 1 µM) | IC50 (second compound 3.16 µM) | IC50 (second compound 10 µM) | viability, T/C [1] | viability, T/C [2] | viability, T/C [3] | viability, T/C [4] | viability, T/C [5] | viability, T/C [6] | viability, T/C [7] | viability, T/C [8] | viability, T/C [9] | viability, T/C [10] | viability, T/C [11] | viability, T/C [13] | viability, T/C [14] | viability, T/C [15] | viability, T/C [16] | further results |
| --- | --- | --- | --- | --- | --- | --- | --- | --- | --- | --- | --- | --- | --- | --- | --- | --- | --- | --- | --- | --- | --- |
| COc1c(OCCCN2CCOCC2)ccc2c3n(c(=NC(=O)c4cnc(N)nc4)nc12)CCN3 + CC(C)NCC(C(=O)N1CCN(c2ncnc3c2C(C)CC3O)CC1)c1ccc(Cl)cc1 | 14.1 nM | 4.43 nM | < 3.16 nM | < 3.16 nM | < 3.16 nM | 78% | 55.2% | 36.6% | 22.6% | 9.18% | 4.85% | 52.9% | 43.2% | 25.7% | 15.6% | 6.21% | 42.1% | 32.6% | 26.6% | 15.5% | viability, T/C [12]: 3.9%; viability, T/C [17]: 5.63%; viability, T/C [18]: 3.82%; viability, T/C [19]: 41.7%; viability, T/C [20]: 24.8%; viability, T/C [21]: 20.9%; viability, T/C [22]: 11.5%; viability, T/C (second compound 3.16 µM, first compound 0.316 µM): 6.46%; viability, T/C (second compound 3.16 µM, first compound 1 µM): 3.61%; viability, T/C [23]: 28.3%; viability, T/C [24]: 19.8%; viability, T/C [25]: 14.1%; viability, T/C [26]: 9.67%; viability, T/C (second compound 10 µM, first compound 0.316 µM): 4.23%; viability, T/C (second compound 10 µM, first compound 1 µM): 3.22% |
| COc1c(OCCCN2CCOCC2)ccc2c3n(c(=NC(=O)c4cnc(N)nc4)nc12)CCN3 + CCN1CCN(Cc2ccc(Nc3ncc(F)c(-c4cc(F)c5nc(C)n(C(C)C)c5c4)n3)nc2)CC1 | < 3.16 nM | 4.34 nM | 13 nM | – | – | 44.3% | 39.5% | 22.5% | 15.9% | 7.66% | 6.13% | 53% | 42.6% | 22.9% | 19.4% | 8.1% | 74.1% | 53.5% | 37% | 26.9% | IC50 (second compound 0.01 µM): 7.95 nM; IC50 (second compound 0.0316 µM): 8.66 nM; viability, T/C (second compound 0.01 µM, first compound 0.00316 µM): 64.5%; viability, T/C (second compound 0.01 µM, first compound 0.01 µM): 44.5%; viability, T/C (second compound 0.01 µM, first compound 0.0316 µM): 31.5%; viability, T/C (second compound 0.01 µM, first compound 0.1 µM): 12.7%; viability, T/C (second compound 0.01 µM, first compound 0.316 µM): 6.31%; viability, T/C (second compound 0.01 µM, first compound 1 µM): 3.91%; viability, T/C (second compound 0.0316 µM, first compound 0.00316 µM): 62.6%; viability, T/C (second compound 0.0316 µM, first compound 0.01 µM): 48.8%; viability, T/C (second compound 0.0316 µM, first compound 0.0316 µM): 28.5%; viability, T/C (second compound 0.0316 µM, first compound 0.1 µM): 17%; viability, T/C (second compound 0.0316 µM, first compound 0.316 µM): 5.97%; viability, T/C (second compound 0.0316 µM, first compound 1 µM): 5.05%; viability, T/C [12]: 7.06%; viability, T/C [17]: 14.7%; viability, T/C [18]: 12.4% |
| CC(C)n1nc(-c2ccc3oc(N)nc3c2)c2c(N)ncnc21 + CC(C)NCC(C(=O)N1CCN(c2ncnc3c2C(C)CC3O)CC1)c1ccc(Cl)cc1 | 9.11 nM | 1.82 nM | 1.13 nM | 0.83 nM | < 0.316 nM | 53.6% | 57.9% | 32.8% | 32.6% | – | – | 43.5% | 29.8% | 37.4% | 33.4% | – | 40.7% | 34% | 29.1% | 25% | viability, T/C (second compound 0.1 µM, first compound 0.000316 µM): 78.4%; viability, T/C (second compound 0.1 µM, first compound 0.001 µM): 72.8%; viability, T/C (second compound 0.316 µM, first compound 0.000316 µM): 72.4%; viability, T/C (second compound 0.316 µM, first compound 0.001 µM): 58.5%; viability, T/C (second compound 1 µM, first compound 0.000316 µM): 59.1%; viability, T/C (second compound 1 µM, first compound 0.001 µM): 51.9%; viability, T/C (second compound 3.16 µM, first compound 0.000316 µM): 61.4%; viability, T/C (second compound 3.16 µM, first compound 0.001 µM): 47.2%; viability, T/C [19]: 37.2%; viability, T/C [20]: 26%; viability, T/C [21]: 21.1%; viability, T/C [22]: 17.2%; viability, T/C (second compound 10 µM, first compound 0.000316 µM): 47.4%; viability, T/C (second compound 10 µM, first compound 0.001 µM): 42.5%; viability, T/C [23]: 34.6%; viability, T/C [24]: 17%; viability, T/C [25]: 13.6%; viability, T/C [26]: 13% |
